In ChEMBL document CHEMBL3872283, “Design, Synthesis, and Evaluation of Novel and Selective G-protein Coupled Receptor 120 (GPR120) Spirocyclic Agonists” (ACS Med Chem Lett, 2017):
The source made the active and inactive calls. The calls are words filed in the database; no cut-off is given here.

Tests used:
[1] = biological target: T1, Free fatty acid receptor 4 (Homo sapiens, UniProt Q5NUL3); assay: Agonist activity at ARMS2-PK2 -tagged human GPR120 short isoform expressed in CHOK1 cells assessed as induction of beta-arrestin2 recruitment after 90 mins by luminescence assay; assay type: cell-based, CHO-K1
T1 sequence (Q5NUL3 whole entry): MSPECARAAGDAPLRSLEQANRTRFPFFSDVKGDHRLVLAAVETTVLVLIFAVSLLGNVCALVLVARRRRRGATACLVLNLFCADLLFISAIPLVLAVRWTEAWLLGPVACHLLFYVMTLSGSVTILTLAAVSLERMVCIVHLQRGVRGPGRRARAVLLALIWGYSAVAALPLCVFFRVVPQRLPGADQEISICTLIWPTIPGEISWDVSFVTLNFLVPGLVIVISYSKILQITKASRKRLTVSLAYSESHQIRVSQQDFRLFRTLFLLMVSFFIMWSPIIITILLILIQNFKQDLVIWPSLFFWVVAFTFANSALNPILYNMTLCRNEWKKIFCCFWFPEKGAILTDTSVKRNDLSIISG

[2] = biological target: T2, Free fatty acid receptor 1 (Homo sapiens, UniProt O14842); assay: Agonist activity at human GPR40 expressed in HEK293 cells assessed as induction of IP1 accumulation after 60 mins by HTRF assay; assay type: functional, cell-based
[3] = biological target: T1, Free fatty acid receptor 4; assay: Agonist activity at human GPR120 short isoform expressed in CHOK1 cells assessed as induction of IP1 accumulation after 60 mins by HTRF assay; assay type: functional, cell-based, CHO-K1
[4] = biological target: T3, Free fatty acid receptor 4 (Mus musculus, UniProt Q7TMA4); assay: Agonist activity at mouse GPR120 expressed in U2OS cells assessed as induction of beta-arrestin2 recruitment after 90 mins by luminescence assay; assay type: cell-based
T3 sequence (Q7TMA4 whole entry): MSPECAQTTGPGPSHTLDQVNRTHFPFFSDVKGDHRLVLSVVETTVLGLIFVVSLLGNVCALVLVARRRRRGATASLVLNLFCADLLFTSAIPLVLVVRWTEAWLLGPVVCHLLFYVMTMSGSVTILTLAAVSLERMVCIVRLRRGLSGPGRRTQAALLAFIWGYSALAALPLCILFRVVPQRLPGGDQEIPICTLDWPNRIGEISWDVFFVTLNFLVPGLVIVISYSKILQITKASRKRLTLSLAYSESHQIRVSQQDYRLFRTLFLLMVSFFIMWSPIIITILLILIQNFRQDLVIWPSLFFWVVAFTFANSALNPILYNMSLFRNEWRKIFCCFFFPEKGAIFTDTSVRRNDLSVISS

[5] = biological target: T3, Free fatty acid receptor 4; assay: Agonist activity at mouse GPR120 expressed in CHOK1 cells assessed as induction of IP1 accumulation after 60 mins by HTRF assay; assay type: functional, cell-based, CHO-K1
Mus musculus [6] = assay: Decrease in insulin levels in diet-induced obese mouse at 10 mg/kg, po qd administered daily via gavage for 28 days measured on day 28 post dose; assay type: functional, organism-based
Mus musculus [7] = assay: Toxicity in diet-induced obese mouse assessed as change in body weight at 10 mg/kg, po qd administered daily via gavage for 28 days; assay type: organism-based; details: in vivo, 672 h
Mus musculus [8] = assay: Decrease in insulin levels in diet-induced obese mouse at 10 mg/kg, po qd administered daily via gavage for 14 days measured on day 14 post dose; assay type: functional, organism-based
Mus musculus [9] = assay: Antidiabetic activity in diet-induced obese mouse assessed as increase in glucose infusion rate during hyperinsulinemic euglycemic clamp procedure at 10 mg/kg, po qd administered daily via gavage measured after 28 days; assay type: functional, organism-based
Mus musculus [10] = assay: Antidiabetic activity in diet-induced obese mouse assessed as insulin sensitivity by measuring reduction in glucose at 10 mg/kg, po qd administered daily via gavage for 28 days measured on day 28 post dose; assay type: functional, organism-based
Mus musculus [11] = assay: Antidiabetic activity in diet-induced obese mouse assessed as insulin sensitivity by measuring reduction in glucose at 10 mg/kg, po qd administered daily via gavage for 14 days measured on day 14 post dose; assay type: functional, organism-based
[12] = biological target: T1, Free fatty acid receptor 4; assay: Agonist activity at human GPR120 assessed as induction of IP1 accumulation; assay type: functional
[13] = biological target: T3, Free fatty acid receptor 4; assay: Agonist activity at mouse GPR120 assessed as induction of beta-arrestin recruitment
[14] = biological target: T1, Free fatty acid receptor 4; assay: Agonist activity at human GPR120 assessed as induction of beta-arrestin recruitment
[15] = biological target: T3, Free fatty acid receptor 4; assay: Agonist activity at mouse GPR120 assessed as induction of IP1 accumulation; assay type: functional
[16] = biological target: T2, Free fatty acid receptor 1; assay: Agonist activity at human GPR40 assessed as induction of IP1 accumulation; assay type: functional

T2 sequence (O14842 whole entry, canonical isoform): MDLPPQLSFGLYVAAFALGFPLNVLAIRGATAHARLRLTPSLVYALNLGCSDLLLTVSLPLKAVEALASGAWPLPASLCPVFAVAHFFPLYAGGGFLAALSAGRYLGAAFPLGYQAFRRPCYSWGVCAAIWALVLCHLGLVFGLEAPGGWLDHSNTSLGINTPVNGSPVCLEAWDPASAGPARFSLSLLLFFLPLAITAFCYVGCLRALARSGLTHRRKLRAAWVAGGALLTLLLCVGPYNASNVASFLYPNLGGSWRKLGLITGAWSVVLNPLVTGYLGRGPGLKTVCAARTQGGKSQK

SMILES	EC50 [1]	EC50 [2]	EC50 [3]	EC50 [4]	EC50 [5]	other results
COc1ccc(Cl)c(N2CCC3(CCC(CC(=O)O)CC3)CC2)c1	2500 nM	> 10000 nM	2100 nM	5300 nM	570 nM	
O=C(O)C1CC12CCC1(CCN(c3cc(OC(F)(F)F)ccc3Cl)CC1)CC2 (stereo unspecified)	3900 nM		2200 nM			
N#Cc1cc(SC(F)(F)F)cc(N2CCC3(CCC(CC(=O)O)CC3)CC2)c1	480 nM	> 10000 nM	360 nM	140 nM	44 nM	
CCc1ccc(CCOc2ccc(CC3SC(=O)NC3=O)cc2)nc1 (stereo unspecified) [PIOGLITAZONE]						Activity (Mus musculus [6]): Active; Activity (Mus musculus [7]): Toxic; Activity (Mus musculus [8]): Active; Activity (Mus musculus [9]): Active; Activity (Mus musculus [10]): Active; Activity (Mus musculus [11]): Active
O=C(O)CCC1CCC2(CC1)CCN(c1cc(OC(F)(F)F)ccc1Cl)CC2	1000 nM		2700 nM			
O=C(O)c1ccc(C2CCN(c3cc(OC(F)(F)F)ccc3F)CC2)cc1						EC50 [12]: > 10000 nM; EC50 [13]: > 10000 nM; EC50 [14]: > 10000 nM; EC50 [15]: > 10000 nM; EC50 [16]: > 10000 nM
O=C(O)CC1CCC2(CC1)CCN(c1cc(C(F)(F)F)ccc1F)CC2	2200 nM	> 10000 nM	1200 nM	3000 nM	590 nM	
O=C(O)CC1CCC2(CC1)CCN(c1ccccc1Cl)CC2	> 10000 nM	> 10000 nM	> 10000 nM	> 10000 nM	> 10000 nM	
O=C(O)CC1CCC2(CCN(c3cc(OC(F)(F)F)ccc3Cl)CC2)OC1 (stereo unspecified)	2100 nM		5700 nM			
O=C(O)C1CCC(C2CCN(c3cc(OC(F)(F)F)ccc3F)CC2)CC1 (stereo unspecified)						EC50 [12]: 700 nM; EC50 [13]: 990 nM; EC50 [15]: 1490 nM; EC50 [16]: > 10000 nM
O=C(O)CC1CCC2(CC1)CCN(c1cc(OC(F)(F)F)ccc1F)CC2	700 nM	> 10000 nM	130 nM	470 nM	49 nM	
O=C(O)CC1CCC2(CC1)CCN(c1cc(Cl)cc(Cl)c1)CC2	190 nM	6300 nM	220 nM	120 nM	51 nM	
Cc1cc(-c2cc(OC(F)(F)F)ccc2Cl)cc(C)c1OCCCC(=O)O						EC50 [13]: 35 nM; EC50 [14]: 100 nM; EC50 [16]: > 10000 nM
CC1CC(CC(=O)O)CCC12CCN(c1cc(OC(F)(F)F)ccc1Cl)CC2 (stereo unspecified)	580 nM		440 nM			
O=C(O)C1CCN(c2ccc(-c3cc(OC(F)(F)F)ccc3F)cc2)CC1						EC50 [12]: 300 nM; EC50 [13]: 320 nM; EC50 [14]: 1600 nM; EC50 [15]: 89 nM; EC50 [16]: > 10000 nM
CC1(C)Cc2cc(Cl)cc(N3CCC4(CCC(CC(=O)O)CC4)CC3)c2O1	3100 nM	> 10000 nM	3300 nM	4000 nM	670 nM	
CC(C(=O)O)C1CCC2(CC1)CCN(c1cc(OC(F)(F)F)ccc1Cl)CC2 (stereo unspecified)	4400 nM		3500 nM			
O=C(O)CCc1cc2cc(-c3cc(OC(F)(F)F)ccc3F)ccc2o1						EC50 [13]: 21 nM; EC50 [14]: 16 nM
O=C(O)CC1CCC2(CC1)CCN(c1cc(F)cc(Cl)c1F)CC2	1400 nM	8100 nM	420 nM	1100 nM	190 nM	
CC1CC2(CCC1CC(=O)O)CCN(c1cc(OC(F)(F)F)ccc1Cl)CC2 (stereo unspecified)	2700 nM		4100 nM			
OCCC1CCC2(CC1)CCN(c1cc(OC(F)(F)F)ccc1Cl)CC2	330 nM		4300 nM			
O=C(O)CC1CCC2(CC1)CCN(c1cc(C(F)(F)F)ccn1)CC2	9200 nM	> 10000 nM	3100 nM	4200 nM	1300 nM	
O=C(O)CN1CCC2(CC1)CCN(c1cc(OC(F)(F)F)ccc1F)CC2	> 10000 nM		> 10000 nM			
N#Cc1ccc(OC(F)(F)F)cc1N1CCC2(CCC(CC(=O)O)CC2)CC1	370 nM	2500 nM	200 nM	290 nM	66 nM	
